Test results as given in ChEMBL document CHEMBL6083263, “The Discovery of MORF-627, a Highly Selective Conformationally-Biased Zwitterionic Integrin αvβ6 Inhibitor for Fibrosis” (J Med Chem, 2024).
Active and inactive are the calls of the source. No cut-off for these calls is given here.

How the values were obtained:
[1] = Volume of distribution at steady state in Beagle dog at 1 mg/kg, iv measured upto 24 hrs by LC/MS-MS analysis; format: ADME, organism-based, Canis lupus familiaris; conditions: in vivo, read-out: Vdss
[2] = Oral bioavailability in Sprague-Dawley rat at 30 mg/kg measured upto 24 hrs by LC/MS-MS analysis; format: ADME, organism-based; conditions: in vivo
[3] = Clearance in Sprague-Dawley rat at 1 mg/kg, iv measured upto 24 hrs by LC/MS-MS analysis; format: ADME, organism-based; conditions: in vivo
Mus musculus [4] = experiment: Antifibrotic activity against BLM-induced C57BL/6J mouse acute lung fibrosis model assessed as reduction in modified ashcroft score at 1 to 10 mg/kg, po administered twice daily for 14 days; format: functional; parameters: scale not given: the % may be the effect or the level left; conditions: dose 1-10 mg/kg, time 14 day
[5] = AUCinfinity in Sprague-Dawley rat at 30 mg/kg, po measured upto 24 hrs by LC/MS-MS analysis; format: ADME, organism-based; conditions: in vivo
Mus musculus [6] = experiment: Antifibrotic activity against BLM-induced C57BL/6J mouse acute lung fibrosis model assessed as reduction in collagen fiber density at 3 mg/kg, po administered twice daily for 14 days; format: functional, organism-based; conditions: time 14.0 day
[7] = Cmax in C57BL/6 mouse at 30 mg/kg, po measured upto 24 hrs by LC/MS-MS analysis; format: ADME, organism-based; conditions: in vivo
[8] = Fraction of compound absorbed into portal vein (FaFg) in cynomolgus monkey at 30 mg/kg, po measured upto 24 hrs by LC/MS-MS analysis; format: ADME, organism-based, Macaca fascicularis; conditions: in vivo
[9] = Clearance in cynomolgus monkey at 1 mg/kg, iv measured upto 24 hrs by LC/MS-MS analysis; format: ADME, organism-based, Macaca fascicularis; conditions: in vivo
[10] = Volume of distribution at steady state in Sprague-Dawley rat at 1 mg/kg, iv measured upto 24 hrs by LC/MS-MS analysis; format: ADME, organism-based; conditions: in vivo, read-out: Vdss
[11] = AUCinfinity in C57BL/6 mouse at 30 mg/kg, po measured upto 24 hrs by LC/MS-MS analysis; format: ADME, organism-based; conditions: in vivo
Mus musculus [12] = experiment: Antifibrotic activity against BLM-induced C57BL/6J mouse acute lung fibrosis model assessed as reduction in picrosirius red positive area at 1 to 10 mg/kg, po administered twice daily for 14 days; format: functional, organism-based; conditions: dose 1-10 mg/kg, time 14.0 day
[13] = Oral bioavailability in Sprague-Dawley rat at 10 mg/kg measured upto 24 hrs by LC/MS-MS analysis; format: ADME, organism-based; conditions: in vivo
[14] = AUCinfinity in C57BL/6 mouse at 1 mg/kg, iv measured upto 24 hrs by LC/MS-MS analysis; format: ADME, organism-based; conditions: in vivo
Mus musculus [15] = experiment: Antifibrotic activity against BLM-induced C57BL/6J mouse acute lung fibrosis model assessed as reduction in pSMAD2:total protein ratio at 0.1 to 100 mg/kg, po administered twice daily for 3 days; format: functional, organism-based; conditions: dose 0.1-100 mg/kg, time 3.0 day
Mus musculus [16] = experiment: Antifibrotic activity against BLM-induced po dosed C57BL/6J mouse acute lung fibrosis model assessed as reduction in pSMAD2 level administered twice daily for 3 days; format: functional, organism-based; conditions: 72 h
[17] = AUCinfinity in Beagle dog at 1 mg/kg, iv measured upto 24 hrs by LC/MS-MS analysis; format: ADME, organism-based, Canis lupus familiaris; conditions: in vivo
[18] = Half-life in C57BL/6 mouse at 30 mg/kg, po measured upto 24 hrs by LC/MS-MS analysis; format: ADME, organism-based; conditions: in vivo
Integrin alpha-V/beta-6 [19] = biological target: T1, Integrin alpha-V/beta-6 (Homo sapiens, UniProt P06756+P18564); experiment: Inhibition of Integrin alphaVbeta6 (unknown origin) mediated TGF-beta1 activation expressed in HEK293 cells cocultured with MLEC cells expressing luciferase reporter; format: cell-based
T1 sequence (P06756 31-889 limits assumed): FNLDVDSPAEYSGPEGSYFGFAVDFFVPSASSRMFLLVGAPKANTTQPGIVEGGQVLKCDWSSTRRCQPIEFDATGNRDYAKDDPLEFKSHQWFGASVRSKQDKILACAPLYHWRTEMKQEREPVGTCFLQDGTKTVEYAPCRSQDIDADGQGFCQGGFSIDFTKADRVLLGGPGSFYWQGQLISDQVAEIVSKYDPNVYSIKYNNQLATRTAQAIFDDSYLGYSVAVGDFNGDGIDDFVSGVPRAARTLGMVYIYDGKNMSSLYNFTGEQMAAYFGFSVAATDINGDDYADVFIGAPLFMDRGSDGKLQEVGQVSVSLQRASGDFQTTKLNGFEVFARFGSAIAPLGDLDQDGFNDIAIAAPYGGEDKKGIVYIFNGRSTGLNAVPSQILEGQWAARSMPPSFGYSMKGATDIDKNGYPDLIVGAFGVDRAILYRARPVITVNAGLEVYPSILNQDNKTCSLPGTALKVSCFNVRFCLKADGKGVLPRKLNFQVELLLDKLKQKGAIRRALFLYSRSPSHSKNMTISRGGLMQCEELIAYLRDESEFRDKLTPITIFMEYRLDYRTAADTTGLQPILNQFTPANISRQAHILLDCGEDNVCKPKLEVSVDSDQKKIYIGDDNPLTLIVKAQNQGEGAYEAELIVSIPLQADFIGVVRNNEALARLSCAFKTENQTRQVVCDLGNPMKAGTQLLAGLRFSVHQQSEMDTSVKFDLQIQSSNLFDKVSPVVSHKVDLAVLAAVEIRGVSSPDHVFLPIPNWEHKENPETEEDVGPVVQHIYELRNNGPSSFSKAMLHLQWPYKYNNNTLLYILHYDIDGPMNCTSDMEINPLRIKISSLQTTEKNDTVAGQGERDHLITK
T1 sequence (P06756 891-1048 limits assumed): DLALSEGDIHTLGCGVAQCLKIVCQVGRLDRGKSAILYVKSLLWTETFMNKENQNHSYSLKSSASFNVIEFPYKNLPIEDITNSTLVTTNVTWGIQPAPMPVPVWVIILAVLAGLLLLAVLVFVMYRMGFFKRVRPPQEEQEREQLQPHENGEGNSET
T1 sequence (P18564 22-788 limits assumed): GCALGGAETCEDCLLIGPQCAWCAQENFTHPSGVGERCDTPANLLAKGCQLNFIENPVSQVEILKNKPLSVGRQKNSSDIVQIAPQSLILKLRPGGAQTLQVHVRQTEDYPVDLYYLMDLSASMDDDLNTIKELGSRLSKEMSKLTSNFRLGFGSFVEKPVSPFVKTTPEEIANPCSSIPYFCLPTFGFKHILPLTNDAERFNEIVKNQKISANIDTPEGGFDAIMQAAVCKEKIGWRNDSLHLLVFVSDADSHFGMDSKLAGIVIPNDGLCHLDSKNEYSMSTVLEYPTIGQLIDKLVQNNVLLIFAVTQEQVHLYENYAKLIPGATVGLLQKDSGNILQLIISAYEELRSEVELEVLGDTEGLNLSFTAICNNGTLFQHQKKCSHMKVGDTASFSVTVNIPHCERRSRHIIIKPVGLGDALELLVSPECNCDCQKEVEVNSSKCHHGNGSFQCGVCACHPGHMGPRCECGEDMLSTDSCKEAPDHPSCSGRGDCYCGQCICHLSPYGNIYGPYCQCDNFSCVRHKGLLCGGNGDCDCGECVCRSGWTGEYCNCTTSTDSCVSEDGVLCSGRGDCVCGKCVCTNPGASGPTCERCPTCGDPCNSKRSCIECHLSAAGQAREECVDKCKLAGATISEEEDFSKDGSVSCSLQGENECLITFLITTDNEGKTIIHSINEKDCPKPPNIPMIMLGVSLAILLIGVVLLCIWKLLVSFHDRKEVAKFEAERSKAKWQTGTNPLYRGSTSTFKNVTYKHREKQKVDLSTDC

Integrin alpha-V/beta-6 [20] = biological target: T1, Integrin alpha-V/beta-6; experiment: Inhibition of Integrin alphaVbeta6 (unknown origin) mediated TGF-beta1 activation expressed in primary epithelial cells cocultured with idiopathic pulmonary fibroblast cells assessed as downregulation of FN mRNA expression measured after 72 hrs by qPCR assay; format: cell-based, Epithelial cell
[21] = Fraction of compound absorbed into portal vein (FaFg) in Sprague-Dawley rat at 30 mg/kg, po measured upto 24 hrs by LC/MS-MS analysis; format: ADME, organism-based; conditions: in vivo
[22] = Half-life in Sprague-Dawley rat at 30 mg/kg, po measured upto 24 hrs by LC/MS-MS analysis; format: ADME, organism-based; conditions: in vivo
[23] = Half-life in C57BL/6 mouse at 1 mg/kg, iv measured upto 24 hrs by LC/MS-MS analysis; format: ADME, organism-based; conditions: in vivo
[24] = Tmax in C57BL/6 mouse at 30 mg/kg, po measured upto 24 hrs by LC/MS-MS analysis; format: ADME, organism-based; conditions: in vivo
[25] = Fraction of compound absorbed into portal vein (FaFg) in C57BL/6 mouse at 30 mg/kg, po measured upto 24 hrs by LC/MS-MS analysis; format: ADME, organism-based; conditions: in vivo
[26] = Half-life in Beagle dog at 1 mg/kg, iv measured upto 24 hrs by LC/MS-MS analysis; format: ADME, organism-based, Canis lupus familiaris; conditions: in vivo
[27] = Half-life in cynomolgus monkey at 1 mg/kg, iv measured upto 24 hrs by LC/MS-MS analysis; format: ADME, organism-based, Macaca fascicularis; conditions: in vivo
[28] = Half-life in Sprague-Dawley rat at 1 mg/kg, iv measured upto 24 hrs by LC/MS-MS analysis; format: ADME, organism-based; conditions: in vivo
[29] = Volume of distribution at steady state in C57BL/6 mouse at 1 mg/kg, iv measured upto 24 hrs by LC/MS-MS analysis; format: ADME, organism-based; conditions: in vivo, read-out: Vdss
Integrin alpha-V/beta-6 [30] = biological target: T1, Integrin alpha-V/beta-6; experiment: Displacement of fluorescein labeled GRGDLGRL from human Integrin alphaVbeta6 preincubated for 15 mins followed by fluorescein labeled GRGDLGRL addition and measured after 1 hr by fluorescence polarization assay; format: protein-complex assay
[31] = Oral bioavailability in cynomolgus […] at 5 mg/kg measured upto 24 hrs by LC/MS-MS analysis; format: ADME, organism-based, Macaca fascicularis; conditions: in vivo
[32] = Clearance in C57BL/6 mouse at 1 mg/kg, iv measured upto 24 hrs by LC/MS-MS analysis; format: ADME, organism-based; conditions: in vivo
[33] = Half-life in cynomolgus […] at 5 mg/kg, po measured upto 24 hrs by LC/MS-MS analysis; format: ADME, organism-based, Macaca fascicularis; conditions: in vivo
[34] = Cmax in cynomolgus […] at 5 mg/kg, po measured upto 24 hrs by LC/MS-MS analysis; format: ADME, organism-based, Macaca fascicularis; conditions: in vivo
Integrin alpha-V/beta-6 [35] = biological target: T1, Integrin alpha-V/beta-6; experiment: Inhibition of Integrin alphaVbeta6 (unknown origin) mediated TGF-beta1 activation expressed in primary epithelial cells cocultured with idiopathic pulmonary fibroblast cells assessed as downregulation of COL1A1 mRNA expression measured after 72 hrs by qPCR assay; format: cell-based, Epithelial cell
[36] = Octanol/water partition coefficient, logD of the compound; format: physicochemical
Integrin alpha-V/beta-8 = Integrin alpha-V/beta-8 (Homo sapiens, UniProt P06756+P26012); experiment: Displacement of fluorescein labeled GRGDLGRL from human Integrin alphaVbeta8 preincubated for 15 mins followed by fluorescein labeled GRGDLGRL addition and measured after 1 hr by fluorescence polarization assay; format: protein-complex assay
Sequence of Integrin alpha-V/beta-8 (P06756 31-889 limits assumed): as the sequence (P06756 31-889 limits assumed) above
Sequence of Integrin alpha-V/beta-8 (P06756 891-1048 limits assumed): as the sequence (P06756 891-1048 limits assumed) above
Sequence of Integrin alpha-V/beta-8 (P26012 43-769 limits assumed): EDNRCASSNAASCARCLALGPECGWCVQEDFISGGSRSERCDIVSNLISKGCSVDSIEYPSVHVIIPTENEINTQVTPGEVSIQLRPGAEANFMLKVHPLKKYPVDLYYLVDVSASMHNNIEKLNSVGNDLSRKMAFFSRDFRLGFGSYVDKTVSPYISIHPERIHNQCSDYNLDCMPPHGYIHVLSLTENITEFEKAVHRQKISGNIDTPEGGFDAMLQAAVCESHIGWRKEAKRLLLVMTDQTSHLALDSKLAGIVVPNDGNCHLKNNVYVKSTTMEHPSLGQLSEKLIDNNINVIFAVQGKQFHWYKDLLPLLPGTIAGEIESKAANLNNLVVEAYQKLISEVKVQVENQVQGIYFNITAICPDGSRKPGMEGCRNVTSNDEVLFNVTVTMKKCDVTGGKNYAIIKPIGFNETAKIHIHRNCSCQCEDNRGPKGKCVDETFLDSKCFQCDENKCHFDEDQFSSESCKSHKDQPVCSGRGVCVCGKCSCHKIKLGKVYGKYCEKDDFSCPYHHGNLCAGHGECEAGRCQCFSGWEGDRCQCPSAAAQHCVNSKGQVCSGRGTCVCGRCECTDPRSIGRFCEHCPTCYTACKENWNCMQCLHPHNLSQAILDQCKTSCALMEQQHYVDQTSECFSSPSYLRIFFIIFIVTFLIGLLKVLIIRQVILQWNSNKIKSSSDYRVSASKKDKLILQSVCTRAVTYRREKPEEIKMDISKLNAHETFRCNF

Integrin alpha-V/beta-6 [37] = biological target: T1, Integrin alpha-V/beta-6; experiment: Binding affinity to human Integrin alphaVbeta6 overexpressed in HEK293 cells incubated for 15 mins in presence of human serum by flow cytometry assay; format: cell-based
[38] = Cmax in Sprague-Dawley rat at 30 mg/kg, po measured upto 24 hrs by LC/MS-MS analysis; format: ADME, organism-based; conditions: in vivo
Integrin alpha-V/beta-1 = Integrin alpha-V/beta-1 (Homo sapiens, UniProt P05556+P06756); experiment: Displacement of fluorescein labeled ACRGDGWC from human Integrin alphaVbeta1 preincubated for 15 mins followed by fluorescein labeled ACRGDGWC addition and measured after 1 hr by fluorescence polarization assay; format: protein-complex assay
Sequence of Integrin alpha-V/beta-1 (P05556 21-798 limits assumed): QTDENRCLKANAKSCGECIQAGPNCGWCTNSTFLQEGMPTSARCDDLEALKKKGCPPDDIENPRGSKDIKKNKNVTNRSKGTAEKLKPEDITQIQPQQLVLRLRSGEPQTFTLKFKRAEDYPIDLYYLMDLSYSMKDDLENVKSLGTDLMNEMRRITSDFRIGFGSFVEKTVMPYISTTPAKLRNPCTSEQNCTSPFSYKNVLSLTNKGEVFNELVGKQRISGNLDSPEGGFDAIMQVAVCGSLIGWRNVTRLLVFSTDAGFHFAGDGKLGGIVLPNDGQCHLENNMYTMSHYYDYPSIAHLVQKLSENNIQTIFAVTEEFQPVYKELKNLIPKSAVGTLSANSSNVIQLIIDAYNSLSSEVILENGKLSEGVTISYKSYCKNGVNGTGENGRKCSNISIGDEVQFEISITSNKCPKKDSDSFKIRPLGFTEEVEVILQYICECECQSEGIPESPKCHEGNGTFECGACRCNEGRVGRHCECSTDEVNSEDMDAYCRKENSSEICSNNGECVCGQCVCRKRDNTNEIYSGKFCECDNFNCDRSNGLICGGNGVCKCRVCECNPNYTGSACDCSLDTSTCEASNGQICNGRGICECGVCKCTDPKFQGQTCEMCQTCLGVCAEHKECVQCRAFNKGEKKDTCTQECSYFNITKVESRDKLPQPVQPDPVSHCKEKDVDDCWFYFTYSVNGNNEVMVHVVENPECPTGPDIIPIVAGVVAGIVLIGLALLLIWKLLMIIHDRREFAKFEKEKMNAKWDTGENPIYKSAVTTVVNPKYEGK
Sequence of Integrin alpha-V/beta-1 (P06756 31-889 limits assumed): as the sequence (P06756 31-889 limits assumed) above
Sequence of Integrin alpha-V/beta-1 (P06756 891-1048 limits assumed): as the sequence (P06756 891-1048 limits assumed) above

[39] = AUCinfinity in cynomolgus monkey at 1 mg/kg, iv measured upto 24 hrs by LC/MS-MS analysis; format: ADME, organism-based, Macaca fascicularis; conditions: in vivo
Mus musculus [40] = experiment: Antifibrotic activity against BLM-induced C57BL/6J mouse acute lung fibrosis model assessed as reduction in collagen structure index at 3 mg/kg, po administered twice daily for 14 days; format: functional, organism-based; conditions: time 14.0 day
[41] = Oral bioavailability in C57BL/6 mouse at 30 mg/kg measured upto 24 hrs by LC/MS-MS analysis; format: ADME, organism-based; conditions: in vivo
[42] = AUCinfinity in cynomolgus […] at 5 mg/kg, po measured upto 24 hrs by LC/MS-MS analysis; format: ADME, organism-based, Macaca fascicularis; conditions: in vivo
[43] = Tmax in Sprague-Dawley rat at 30 mg/kg, po measured upto 24 hrs by LC/MS-MS analysis; format: ADME, organism-based; conditions: in vivo
[44] = AUCinfinity in Sprague-Dawley rat at 1 mg/kg, iv measured upto 24 hrs by LC/MS-MS analysis; format: ADME, organism-based; conditions: in vivo
Mus musculus [45] = experiment: Antifibrotic activity against BLM-induced C57BL/6J mouse acute lung fibrosis model assessed as reduction in total collagen deposition at 3 mg/kg, po administered twice daily for 14 days; format: functional, organism-based; conditions: time 14.0 day
[46] = Volume of distribution at steady state in cynomolgus monkey at 1 mg/kg, iv measured upto 24 hrs by LC/MS-MS analysis; format: ADME, organism-based, Macaca fascicularis; conditions: in vivo, read-out: Vdss
Integrin alpha-V/beta-6 [47] = biological target: T1, Integrin alpha-V/beta-6; experiment: Inhibition of Integrin alphaVbeta6 (unknown origin) mediated TGF-beta1 activation expressed in primary epithelial cells cocultured with idiopathic pulmonary fibroblast cells assessed as downregulation of COL3A1 mRNA expression measured after 72 hrs by qPCR assay; format: cell-based, Epithelial cell
[48] = Tmax in cynomolgus […] at 5 mg/kg, po measured upto 24 hrs by LC/MS-MS analysis; format: ADME, organism-based, Macaca fascicularis; conditions: in vivo
Mus musculus [49] = experiment: Antifibrotic activity against BLM-induced po dosed C57BL/6J mouse acute lung fibrosis model assessed as reduction in modified ashcroft score administered twice daily for 14 days; format: functional; parameters: scale not given: the % may be the effect or the level left; conditions: time 14 day

## O=C(O)[C@H](c1cc(F)ccc1[C@@H]1CCC2(CC2)CO1)N1CC[C@@H](OCCCCc2ccc3c(n2)NCCC3)C1
[1]
  Vd: 1.84 L/kg
[2]
  bioavailability: 74%
[3]
  clearance: 28 mL/min/kg
Mus musculus [4]
  Activity: 33%
[5]
  AUC(0-inf): 14000 ng·h/mL
Mus musculus [6]
  Activity: Active
[7]
  Cmax: 7600 ng/mL
[8]
  FaFg: 21%
[9]
  clearance: 10.5 mL/min/kg
[10]
  Vd: 3.1 L/kg
[11]
  AUC(0-inf): 19000 ng·h/mL
Mus musculus [12]
  Activity: Active; No Statistical Significant Activity
[13]
  bioavailability: 22%
[14]
  AUC(0-inf): 940 ng·h/mL
Mus musculus [15]
  Activity: Active; Showed Significant Activity At 10 To 30 Mg/Kg
Mus musculus [16]
  IC50: 8.3 nM
[17]
  AUC: 2970 ng·h/mL
[18]
  t1/2: 2.6 h
Integrin alpha-V/beta-6 [19]
  IC50: 2.63 nM
Integrin alpha-V/beta-6 [20]
  IC50: 20.3 nM
[21]
  FaFg: 123%
[22]
  t1/2: 1.8 h
[23]
  half-life: 1.9 h
[24]
  Tmax: 0.25 h
[25]
  FaFg: 83%
[26]
  half-life: 4.9 h
[27]
  half-life: 4.9 h
[28]
  half-life: 1.9 h
[29]
  Vd: 2.07 L/kg
Integrin alpha-V/beta-6 [30]
  IC50: 1.1 nM
[31]
  bioavailability: 16%
[32]
  clearance: 18 mL/min/kg
[33]
  t1/2: 4.8 h
[34]
  Cmax: 540 ng/mL
Integrin alpha-V/beta-6 [35]
  IC50: 1.8 nM
[36]
  logD: 2.2
Integrin alpha-V/beta-8
  IC50: 330 nM
Integrin alpha-V/beta-6 [37]
  IC50: 9.2 nM
[38]
  Cmax: 14000 ng/mL
Integrin alpha-V/beta-1
  IC50: 490 nM
[39]
  AUC(0-inf): 1590 ng·h/mL
Mus musculus [40]
  Activity: Active
[41]
  bioavailability: 66%
[42]
  AUC(0-inf): 1600 ng·h/mL
[43]
  Tmax: 0.25 h
[44]
  AUC(0-inf): 610 ng·h/mL
Mus musculus [45]
  Activity: Active
[46]
  Vd: 2.45 L/kg
Integrin alpha-V/beta-6 [47]
  IC50: 12.8 nM
[48]
  Tmax: 1 h

## Cc1cccc(-c2[nH]c(C(C)(C)C)nc2-c2ccc3nccnc3c2)n1
Mus musculus [49]
  Activity: 37%
